Assay results from ChEMBL document CHEMBL1909046, “DrugMatrix in vitro pharmacology data”.

Assays:
Estrogen receptor = target: T1, Estrogen receptor (Homo sapiens, UniProt P03372); settings: sf9; note: in other assays of this panel Not Active means under 50% inhibition at 10 µM
T1 sequence (P03372 whole entry): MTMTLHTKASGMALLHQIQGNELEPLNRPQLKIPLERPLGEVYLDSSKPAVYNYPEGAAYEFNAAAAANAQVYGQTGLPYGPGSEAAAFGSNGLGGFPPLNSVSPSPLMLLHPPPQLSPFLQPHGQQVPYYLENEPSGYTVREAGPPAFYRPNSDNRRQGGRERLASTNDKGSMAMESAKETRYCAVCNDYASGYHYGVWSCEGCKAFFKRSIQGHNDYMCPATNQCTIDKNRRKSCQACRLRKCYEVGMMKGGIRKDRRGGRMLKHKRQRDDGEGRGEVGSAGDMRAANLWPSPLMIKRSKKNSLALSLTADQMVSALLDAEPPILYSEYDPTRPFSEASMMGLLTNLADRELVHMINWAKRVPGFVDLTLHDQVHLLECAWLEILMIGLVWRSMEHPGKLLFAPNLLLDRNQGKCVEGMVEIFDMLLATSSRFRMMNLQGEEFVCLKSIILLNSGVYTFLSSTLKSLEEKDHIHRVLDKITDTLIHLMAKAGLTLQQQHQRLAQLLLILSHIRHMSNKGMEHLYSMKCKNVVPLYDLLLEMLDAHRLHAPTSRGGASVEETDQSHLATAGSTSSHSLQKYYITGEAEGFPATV

Endothelin-1 receptor = target: T2, Endothelin-1 receptor (Homo sapiens, UniProt P25101); type: cell membranes, CHO-K1, Membrane; settings: cho-k1; note: in other assays of this panel Not Active means under 50% inhibition at 10 µM
T2 sequence (P25101 whole entry): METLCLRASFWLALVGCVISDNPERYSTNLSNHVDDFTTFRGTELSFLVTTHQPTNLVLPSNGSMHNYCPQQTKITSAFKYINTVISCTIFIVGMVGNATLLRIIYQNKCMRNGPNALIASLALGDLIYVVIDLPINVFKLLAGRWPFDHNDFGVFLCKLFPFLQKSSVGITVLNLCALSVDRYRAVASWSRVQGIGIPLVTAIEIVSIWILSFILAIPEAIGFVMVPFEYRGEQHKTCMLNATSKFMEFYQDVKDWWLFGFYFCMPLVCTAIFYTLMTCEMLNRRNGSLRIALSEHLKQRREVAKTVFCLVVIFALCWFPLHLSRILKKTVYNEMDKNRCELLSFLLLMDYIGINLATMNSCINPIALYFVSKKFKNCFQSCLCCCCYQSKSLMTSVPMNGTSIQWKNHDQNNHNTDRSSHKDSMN

[1] = target: Mitogen-activated protein kinase 1 (Homo sapiens, UniProt P28482); experiment: DRUGMATRIX: Protein Serine/Threonine Kinase, ERK2 enzyme inhibition (substrate: Myelin Basic Protein); design: species or system Escherichia coli; settings: Not Active = under 50% inhibition at 10 µM
Mitogen-activated protein kinase 1, sequence (P28482 whole entry): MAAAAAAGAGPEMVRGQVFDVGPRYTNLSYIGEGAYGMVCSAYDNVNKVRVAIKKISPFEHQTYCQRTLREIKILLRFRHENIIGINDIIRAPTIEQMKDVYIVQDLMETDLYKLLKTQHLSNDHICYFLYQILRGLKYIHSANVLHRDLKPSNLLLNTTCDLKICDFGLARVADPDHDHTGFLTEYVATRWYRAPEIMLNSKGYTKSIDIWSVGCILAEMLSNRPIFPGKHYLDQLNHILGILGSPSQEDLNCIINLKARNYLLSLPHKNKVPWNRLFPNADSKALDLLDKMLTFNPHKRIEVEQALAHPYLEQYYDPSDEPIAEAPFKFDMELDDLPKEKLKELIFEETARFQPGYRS

[2] = target: Delta-type opioid receptor (Homo sapiens, UniProt P41143); type: cell membranes, HEK293, Membrane; settings: hek293; note: in other assays of this panel Not Active means under 50% inhibition at 10 µM
Delta-type opioid receptor, sequence (P41143 whole entry): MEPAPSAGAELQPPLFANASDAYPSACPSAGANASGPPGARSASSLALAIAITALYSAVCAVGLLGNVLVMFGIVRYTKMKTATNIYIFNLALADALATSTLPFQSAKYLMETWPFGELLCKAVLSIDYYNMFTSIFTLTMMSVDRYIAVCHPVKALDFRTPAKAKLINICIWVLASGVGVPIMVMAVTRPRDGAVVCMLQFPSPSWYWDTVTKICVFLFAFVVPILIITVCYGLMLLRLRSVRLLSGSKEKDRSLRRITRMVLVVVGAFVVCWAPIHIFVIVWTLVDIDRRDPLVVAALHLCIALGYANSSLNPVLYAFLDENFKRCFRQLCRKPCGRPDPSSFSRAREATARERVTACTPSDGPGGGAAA

Cannabinoid receptor 1 = Cannabinoid receptor 1 (Homo sapiens, UniProt P21554); type: cell membranes, Membrane; settings: chem-1; note: in other assays of this panel Not Active means under 50% inhibition at 10 µM
Cannabinoid receptor 1, sequence (P21554 whole entry): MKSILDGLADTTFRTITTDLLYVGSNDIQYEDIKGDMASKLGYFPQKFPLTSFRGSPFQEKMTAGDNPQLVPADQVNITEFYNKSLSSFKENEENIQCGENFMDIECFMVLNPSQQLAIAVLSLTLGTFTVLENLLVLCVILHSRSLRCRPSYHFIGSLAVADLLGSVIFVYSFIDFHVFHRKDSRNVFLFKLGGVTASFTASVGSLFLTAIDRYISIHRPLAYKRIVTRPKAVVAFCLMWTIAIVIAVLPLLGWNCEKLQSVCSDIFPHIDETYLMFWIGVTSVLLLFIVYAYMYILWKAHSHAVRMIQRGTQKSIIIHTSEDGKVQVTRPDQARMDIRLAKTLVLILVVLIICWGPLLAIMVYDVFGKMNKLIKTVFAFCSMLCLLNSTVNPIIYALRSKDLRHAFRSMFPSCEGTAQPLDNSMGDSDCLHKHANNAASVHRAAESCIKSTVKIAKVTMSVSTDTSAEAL

[3] = target: T3, 3-hydroxy-3-methylglutaryl-coenzyme A reductase (Homo sapiens, UniProt P04035); design: species or system Escherichia coli
T3 sequence (P04035 whole entry): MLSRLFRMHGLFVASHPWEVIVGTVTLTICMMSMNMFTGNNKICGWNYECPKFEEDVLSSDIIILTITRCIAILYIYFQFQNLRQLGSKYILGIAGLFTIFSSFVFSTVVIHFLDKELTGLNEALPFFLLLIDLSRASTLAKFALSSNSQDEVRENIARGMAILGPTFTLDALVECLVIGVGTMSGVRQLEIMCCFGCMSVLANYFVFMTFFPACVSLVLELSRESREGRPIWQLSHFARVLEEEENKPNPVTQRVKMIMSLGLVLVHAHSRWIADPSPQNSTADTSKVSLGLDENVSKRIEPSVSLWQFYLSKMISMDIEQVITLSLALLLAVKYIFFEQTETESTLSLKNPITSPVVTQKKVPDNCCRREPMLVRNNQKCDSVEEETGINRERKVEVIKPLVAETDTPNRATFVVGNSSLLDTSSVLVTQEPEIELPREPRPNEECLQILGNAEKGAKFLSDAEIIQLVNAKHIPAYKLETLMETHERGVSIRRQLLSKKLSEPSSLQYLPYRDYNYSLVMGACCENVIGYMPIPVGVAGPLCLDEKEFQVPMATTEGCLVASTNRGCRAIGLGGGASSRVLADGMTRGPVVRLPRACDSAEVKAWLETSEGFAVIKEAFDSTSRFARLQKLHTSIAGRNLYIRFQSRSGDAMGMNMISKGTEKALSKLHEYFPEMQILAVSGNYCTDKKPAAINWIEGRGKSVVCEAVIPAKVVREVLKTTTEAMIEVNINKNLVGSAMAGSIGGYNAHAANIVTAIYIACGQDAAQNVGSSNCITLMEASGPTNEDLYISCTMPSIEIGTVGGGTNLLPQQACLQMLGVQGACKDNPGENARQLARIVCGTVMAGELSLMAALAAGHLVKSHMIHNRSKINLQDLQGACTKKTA

[4] = DRUGMATRIX: Platelet-Derived Growth Factor (PDGF) radioligand binding (ligand: [125I] PDGF); type: cell-based; settings: nih3t3; Not Active = under 50% inhibition at 10 µM
Carbonic anhydrase 2 = Carbonic anhydrase 2 (Homo sapiens, UniProt P00918); experiment: DRUGMATRIX: Carbonic Anhydrase II enzyme inhibition (substrate: 4-Nitrophenyl acetate (4-NPA)); type: tissue-based, Erythrocyte; settings: erythrocyte; Not Active = under 50% inhibition at 10 µM
Cytochrome P450 1A2 = target: T4, Cytochrome P450 1A2 (Homo sapiens, UniProt P05177); settings: bti-tn-5b1-4; note: in other assays of this panel Not Active means under 50% inhibition at 10 µM
T4 sequence (P05177 whole entry): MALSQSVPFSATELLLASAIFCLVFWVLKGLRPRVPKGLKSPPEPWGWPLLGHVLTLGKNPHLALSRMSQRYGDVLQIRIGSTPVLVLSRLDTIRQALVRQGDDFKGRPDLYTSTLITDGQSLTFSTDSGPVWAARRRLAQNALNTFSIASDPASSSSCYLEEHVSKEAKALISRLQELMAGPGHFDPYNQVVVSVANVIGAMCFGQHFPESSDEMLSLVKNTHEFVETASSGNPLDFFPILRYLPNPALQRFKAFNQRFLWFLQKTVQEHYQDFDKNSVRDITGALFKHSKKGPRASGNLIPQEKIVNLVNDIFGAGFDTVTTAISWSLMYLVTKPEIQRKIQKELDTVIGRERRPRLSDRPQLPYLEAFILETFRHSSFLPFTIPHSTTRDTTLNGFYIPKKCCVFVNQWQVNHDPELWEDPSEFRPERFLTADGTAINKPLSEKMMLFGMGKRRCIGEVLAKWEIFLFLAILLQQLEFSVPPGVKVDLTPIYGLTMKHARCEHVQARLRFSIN

CC1Cc2ccccc2N1NC(=O)c1ccc(Cl)c(S(N)(=O)=O)c1 (centres undefined) [INDAPAMIDE]
Not Active: IC50 (Estrogen receptor) | IC50 (Endothelin-1 receptor) | IC50 [1] | IC50 [2] | IC50 (Cannabinoid receptor 1) | IC50 [3] | IC50 [4] | Ki [4] | IC50 (Carbonic anhydrase 2) | IC50 (Cytochrome P450 1A2) | Ki (Cytochrome P450 1A2)

CCC(C)n1ncn(-c2ccc(N3CCN(c4ccc(OCC5COC(Cn6cncn6)(c6ccc(Cl)cc6Cl)O5)cc4)CC3)cc2)c1=O (centres undefined) [ITRACONAZOLE]
Not Active: IC50 (Estrogen receptor) | IC50 (Endothelin-1 receptor) | IC50 [1] | IC50 [2] | IC50 (Cannabinoid receptor 1) | IC50 [3] | IC50 [4] | Ki [4] | IC50 (Carbonic anhydrase 2) | IC50 (Cytochrome P450 1A2) | Ki (Cytochrome P450 1A2)

CCCCN1CCCC[C@H]1C(=O)Nc1c(C)cccc1C [LEVOBUPIVACAINE]
Not Active: IC50 (Estrogen receptor) | IC50 (Endothelin-1 receptor) | IC50 [1] | IC50 [2] | IC50 (Cannabinoid receptor 1) | IC50 [3] | IC50 [4] | Ki [4] | IC50 (Carbonic anhydrase 2) | IC50 (Cytochrome P450 1A2) | Ki (Cytochrome P450 1A2)

Sc1ncnc2nc[nH]c12 [MERCAPTOPURINE ANHYDROUS]
Not Active: IC50 (Estrogen receptor) | IC50 (Endothelin-1 receptor) | IC50 [1] | IC50 [2] | IC50 (Cannabinoid receptor 1) | IC50 [3] | IC50 [4] | Ki [4] | IC50 (Carbonic anhydrase 2) | IC50 (Cytochrome P450 1A2) | Ki (Cytochrome P450 1A2)

C[C@]12CCC(=O)C=C1CC[C@@H]1[C@@H]2CC[C@@]2(C)[C@H]1CC[C@]2(C)O [METHYLTESTOSTERONE]
Not Active: IC50 (Estrogen receptor) | IC50 (Endothelin-1 receptor) | IC50 [1] | IC50 [2] | IC50 (Cannabinoid receptor 1) | IC50 [3] | IC50 [4] | Ki [4] | IC50 (Carbonic anhydrase 2) | IC50 (Cytochrome P450 1A2) | Ki (Cytochrome P450 1A2)

CCn1cc(C(=O)O)c(=O)c2cc(F)c(N3CCNCC3)cc21 [NORFLOXACIN]
Not Active: IC50 (Estrogen receptor) | IC50 (Endothelin-1 receptor) | IC50 [1] | IC50 [2] | IC50 (Cannabinoid receptor 1) | IC50 [3] | IC50 [4] | Ki [4] | IC50 (Carbonic anhydrase 2) | IC50 (Cytochrome P450 1A2) | Ki (Cytochrome P450 1A2)

Nc1nc2c(ncn2CCC(CO)CO)c(=O)[nH]1 [PENCICLOVIR]
Not Active: IC50 (Estrogen receptor) | IC50 (Endothelin-1 receptor) | IC50 [1] | IC50 [2] | IC50 (Cannabinoid receptor 1) | IC50 [3] | IC50 [4] | Ki [4] | IC50 (Carbonic anhydrase 2) | IC50 (Cytochrome P450 1A2) | Ki (Cytochrome P450 1A2)

C=C(C)C1(O)OC(=O)C=C1OC (centres undefined) [PENICILLIC ACID]
Not Active: IC50 (Estrogen receptor) | IC50 (Endothelin-1 receptor) | IC50 [1] | IC50 [2] | IC50 (Cannabinoid receptor 1) | IC50 [3] | IC50 [4] | Ki [4] | IC50 (Carbonic anhydrase 2) | IC50 (Cytochrome P450 1A2) | Ki (Cytochrome P450 1A2)

CCCN1C[C@H](CSC)C[C@@H]2c3cccc4[nH]cc(c34)C[C@H]21 [PERGOLIDE]
Not Active: IC50 (Estrogen receptor) | IC50 (Endothelin-1 receptor) | IC50 [1] | IC50 [2] | IC50 (Cannabinoid receptor 1) | IC50 [3] | IC50 [4] | Ki [4] | IC50 (Carbonic anhydrase 2) | IC50 (Cytochrome P450 1A2) | Ki (Cytochrome P450 1A2)

C1CCC(C(CC2CCCCN2)C2CCCCC2)CC1 (centres undefined) [PERHEXILINE]
Not Active: IC50 (Estrogen receptor) | IC50 (Endothelin-1 receptor) | IC50 [1] | IC50 [2] | IC50 (Cannabinoid receptor 1) | IC50 [3] | IC50 [4] | Ki [4] | IC50 (Carbonic anhydrase 2) | IC50 (Cytochrome P450 1A2) | Ki (Cytochrome P450 1A2)

CCOc1ccc(NC(C)=O)cc1 [PHENACETIN]
Not Active: IC50 (Estrogen receptor) | IC50 (Endothelin-1 receptor) | IC50 [1] | IC50 [2] | IC50 (Cannabinoid receptor 1) | IC50 [3] | IC50 [4] | Ki [4] | IC50 (Carbonic anhydrase 2) | IC50 (Cytochrome P450 1A2) | Ki (Cytochrome P450 1A2)

Cc1ccc(N(CC2=NCCN2)c2cccc(O)c2)cc1 [PHENTOLAMINE]
Not Active: IC50 (Estrogen receptor) | IC50 (Endothelin-1 receptor) | IC50 [1] | IC50 [2] | IC50 (Cannabinoid receptor 1) | IC50 [3] | IC50 [4] | Ki [4] | IC50 (Carbonic anhydrase 2) | IC50 (Cytochrome P450 1A2) | Ki (Cytochrome P450 1A2)

CC(O)CO (centres undefined) [PROPYLENE GLYCOL]
Not Active: IC50 (Estrogen receptor) | IC50 (Endothelin-1 receptor) | IC50 [1] | IC50 [2] | IC50 (Cannabinoid receptor 1) | IC50 [3] | IC50 [4] | Ki [4] | IC50 (Carbonic anhydrase 2) | IC50 (Cytochrome P450 1A2) | Ki (Cytochrome P450 1A2)

CADMIUM ACETATE
Not Active: IC50 (Estrogen receptor) | Ki (Estrogen receptor) | IC50 (Endothelin-1 receptor) | Ki (Endothelin-1 receptor) | IC50 [1] | Ki [1] | IC50 [2] | Ki [2] | IC50 (Cannabinoid receptor 1) | Ki (Cannabinoid receptor 1) | IC50 [3] | Ki [3] | IC50 [4] | Ki [4] | IC50 (Carbonic anhydrase 2) | Ki (Carbonic anhydrase 2) | IC50 (Cytochrome P450 1A2) | Ki (Cytochrome P450 1A2)

LEAD (II) ACETATE
Not Active: IC50 (Estrogen receptor) | Ki (Estrogen receptor) | IC50 (Endothelin-1 receptor) | Ki (Endothelin-1 receptor) | IC50 [1] | Ki [1] | IC50 [2] | Ki [2] | IC50 (Cannabinoid receptor 1) | Ki (Cannabinoid receptor 1) | IC50 [3] | Ki [3] | IC50 [4] | Ki [4] | IC50 (Carbonic anhydrase 2) | Ki (Carbonic anhydrase 2) | IC50 (Cytochrome P450 1A2) | Ki (Cytochrome P450 1A2)
